From patent publication US8501732B2, “Aminomethyl quinolone compounds” (Hoffmann-La Roche Inc., priority 2011, dated 2013)

Legend:
[1] = tested on: phospho(Ser63)-c-jun in HK-2 cells; test: Cell-Based Assay for JNK Inhibitors (in-cell ELISA, phospho(Ser63)-c-jun after TNFα); details: HK-2 cells (human proximal tubule cells), 60 minutes compound, then 10 ng/mL TNFα for 30 minutes
Experimental: Cell-Based Assay for JNK Inhibitors
The cell-based assay employed the in-cell ELISA method to determine the ability of compounds to prevent the generation of phospho(Ser63)-c-jun in HK-2 cells (human proximal tubule cells) in response to stimulation with tumor necrosis factor α (TNFα). In brief, for quantification of phospho(Ser63)-c-jun, the cells (in 96-well format) were fixed and permeablized then incubated sequentially with a rabbit anti-phospho-c-jun First Antibody specific for the presence of the phospho-Ser63 epitope and a donkey anti-rabbit IgG Second Antibody linked to horseradish peroxidase (HRP) for colorimetric quantitation of binding. […] Blank wells received no TNFα stimulation or compound. Additional Control wells received TNFα stimulation, but no compound.
Stock cultures of HK-2 cells (ATCC, Manassas, Va.) were grown under a 5% CO2/[…] atmosphere at 37 degrees C. in Keratinocyte-SFM medium (KSFM, Invitrogen, Grand Island, N.Y.) containing 5 μg/L epidermal growth factor and 5 mg/L bovine pituitary extract (both supplied with the medium), additionally supplemented with 10% (v/v) fetal calf serum (FCS; Invitrogen, Grand Island, N.Y.) and 1% (v/v) antibiotic-antimycotic (ABAM: Sigma, St. Louis, Mo.). For assays, cells were seeded in collagen coated 96-well polystyrene plates (BD Biosciences, Franklin Lakes, N.J.) at a density of 40,000 cells/well and cultured for 24 h in the same medium (100 μL/well) followed by a further 16-24 h in 100 μL of similar medium, but without FCS. […] Plates were then allowed to stand at room temperature for 20 minutes before being washed with 200 μL/well of PBS. (Further steps were performed immediately or the plates were stored at 4 degrees C. and the assay completed the next day.) To each well was added 100 μL 1% (v/v) TritonX-100 (Sigma, St. Louis, Mo.) in PBS followed by 20 minutes standing at room temperature, washing with 200 μL/well PBS, the addition of 100 μL/well of Quenching buffer (1% (v/v) hydrogen peroxide (Sigma, St. Louis, Mo.) and 0.1% (w/v) sodium azide (Fisher Scientific, Fair Lawn, N.J.)) in PBS and a further 20 minutes at room temperature. Plates were then washed twice with 200 μL/well of 0.1% (v/v) Tween-20 (Teknova, Hollister, Calif.) in PBS before addition of 200 μL/well of 2% BSA/0.1% Tween-20 in PBS and a further 1 hour at room temperature. […] After a further one hour, rabbit anti-phospho-c-jun-Ser63 is added directly to the solution in the Blank wells resulting in 1:250 dilution of this antibody. Plates were then placed on a slowly rotating platform at 4 degrees C. overnight. Wells were then washed thrice with 200 μL/well PBS/0.1% Tween-20. After addition of the third wash, the plates were placed on a slowly rotating platform for 15 minutes at room temperature. The final PBS/Tween20 wash was then replaced with 100 μL/well of donkey anti-rabbit HRP-labeled Second Antibody (Jackson ImmunoResearch Laboratory, West Grove, Pa.) diluted 1:10,000 in Antibody Dilution Buffer and the plates placed on a slowly rotating platform for 1 hour at room temperature. Wells were then washed four times with 200 μL/well PBS/0.1% Tween-20, including slow rotation for 30 minutes for the third wash and 10 minutes for the final wash. The wells were then washed once with 200 μL PBS without Tween-20. […] Absorbance was determined at a 450 nm wavelength using a spectrophotometer (Molecular Devices SpectraMax 250).

JNK1 = JNK1 (Homo sapiens (Human), UniProt P45983); test: In Vitro JNK1 Assay (TR-FRET, phosphorylation of GST-c-Jun); format: biochemical; details: 0.2 nM active JNK1 kinase, 26.7 nM GST-c-Jun, 2 μM ATP, 30 min at room temperature
Chain of JNK1 (P45983 whole entry): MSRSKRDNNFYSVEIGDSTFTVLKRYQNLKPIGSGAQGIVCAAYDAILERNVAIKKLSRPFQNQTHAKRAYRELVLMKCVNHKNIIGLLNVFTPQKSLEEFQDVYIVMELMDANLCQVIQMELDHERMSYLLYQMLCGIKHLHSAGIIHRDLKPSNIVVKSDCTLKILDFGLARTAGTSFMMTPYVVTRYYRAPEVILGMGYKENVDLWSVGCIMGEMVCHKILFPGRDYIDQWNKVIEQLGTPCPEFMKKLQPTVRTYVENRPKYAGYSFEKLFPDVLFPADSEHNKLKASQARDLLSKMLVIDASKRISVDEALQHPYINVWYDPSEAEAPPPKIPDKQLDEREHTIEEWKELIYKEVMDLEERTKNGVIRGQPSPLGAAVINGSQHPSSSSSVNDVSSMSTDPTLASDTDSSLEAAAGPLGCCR
How it was run: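 IC50 derived from percent inhibition across 10 serially diluted concentrations, with TR-FRET detection of phospho-c-Jun via an anti-phospho-c-Jun antibody after EDTA stop. Substrate was GST-c-Jun 1-79, reacted 30 min at room temperature in pH 7.0 HEPES buffer with MgCl2, DTT, vanadate and BSA.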

Compound: NC(=O)N1CCN(c2ccc(C(=O)NCc3cn(-c4ccccc4)c4cc(Cl)ccc4c3=O)cn2)CC1 [Example I-73, 4-{5-[(7-Chloro-4-oxo-1-phenyl-1,4-dihydro-quinolin-3-ylmethyl)-carbamoyl]-pyridin-2-yl}-piperazine-1-carboxylic acid amide]
- EC50 [1]: 100000 nM
- IC50 (JNK1): 29 nM

Compound: COC(=O)c1c(CNC(=O)c2ccc3scnc3c2)c(=O)c2ccc(Cl)cc2n1-c1ccccc1 [Example I-113, 3-{[(Benzothiazole-5-carbonyl)-amino]-methyl}-7-chloro-4-oxo-1-phenyl-1,4-dihydro-quinoline-2-carboxylic acid methyl ester]
- EC50 [1]: 2000 nM
- IC50 (JNK1): 7 nM

Compound: COC(=O)c1c(CNC(=O)c2ccncc2)c(=O)c2ccc(Cl)cc2n1-c1ccccc1 [Example I-136, 7-Chloro-4-oxo-1-phenyl-3-{[(pyridine-4-carbonyl)-amino]-methyl}-1,4-di-hydro-quinoline-2-carboxylic acid methyl ester]
- EC50 [1]: 7900 nM
- IC50 (JNK1): 12 nM

Compound: O=C(NCc1cn(-c2ccccc2Cl)c2cc(Cl)ccc2c1=O)c1ccc(N2CCOCC2)nc1 [Example I-100]
- EC50 [1]: 29000 nM
- IC50 (JNK1): 90 nM

Compound: COC1CCN(c2ccc(C(=O)NCc3cn(-c4ccccc4)c4cc(Cl)ccc4c3=O)cn2)CC1 [Example I-71, 4-Methoxy-3,4,5,6-tetrahydro-2H-[1,2′]bipyridinyl-5′-carboxylic acid (7-chloro-4-oxo-1-phenyl-1,4-dihydro-quinolin-3-ylmethyl)-amide]
- EC50 [1]: 17000 nM
- IC50 (JNK1): 26 nM

Compound: O=C(NCc1cn(-c2ccccc2)c2cc(Cl)ccc2c1=O)c1ccc(N2CCC(CCO)CC2)nc1 [Example I-63, 4-(2-Hydroxy-ethyl)-3,4,5,6-tetrahydro-2H-[1,2′]bipyridinyl-5′-carboxylic acid (7-chloro-4-oxo-1-phenyl-1,4-dihydro-quinolin-3-ylmethyl)-amide]
- EC50 [1]: 3800 nM
- IC50 (JNK1): 17 nM

Compound: COC(=O)c1c(CNC(=O)c2ccc(-c3cc[nH]n3)cc2)c(=O)c2ccc(Cl)cc2n1-c1ccccc1 [Example I-122, 7-Chloro-4-oxo-1-phenyl-3-{[4-(1H-pyrazol-3-yl)-benzoylamino]-methyl}-1,4-dihydro-quinoline-2-carboxylic acid methyl ester]
- EC50 [1]: 3300 nM
- IC50 (JNK1): 15 nM

Compound: CN1CCCN(c2ccc(C(=O)NCc3cn(-c4ccccc4)c4cc(Cl)ccc4c3=O)cn2)CC1 [Example I-82, N-(7-Chloro-4-oxo-1-phenyl-1,4-dihydro-quinolin-3-ylmethyl)-6-(4-methyl-[1,4]diazepan-1-yl)-nicotinamide]
- EC50 [1]: 19000 nM
- IC50 (JNK1): 71 nM

Compound: O=C(NCc1cn(-c2ccccc2F)c2cc(F)ccc2c1=O)c1ccc(N2CCOCC2)nc1 [Example I-108, N-[7-Fluoro-1-(2-fluoro-phenyl)-4-oxo-1,4-dihydro-quinolin-3-ylmethyl]-6-morpholin-4-yl-nicotinamide]
- EC50 [1]: 47000 nM
- IC50 (JNK1): 120 nM

Compound: CN(C)C(=O)c1c(CNC(=O)c2cnc(N3CCOCC3)s2)c(=O)c2ccc(Cl)cc2n1-c1ccccc1 [Example I-14, 7-Chloro-3-{[(2-morpholin-4-yl-thiazole-5-carbonyl)-amino]-methyl}-4-oxo-1-phenyl-1,4-dihydro-quinoline-2-carboxylic acid dimethylamide]
- EC50 [1]: 25000 nM
- IC50 (JNK1): 36 nM

Compound: CS(=O)(=O)C1CCN(c2ncc(C(=O)NCc3cn(-c4ccccc4)c4cc(Cl)ccc4c3=O)s2)CC1 [Example I-92, 2-(4-Methanesulfonyl-piperidin-1-yl)-thiazole-5-carboxylic acid (7-chloro-4-oxo-1-phenyl-1,4-dihydro-quinolin-3-ylmethyl)-amide]
- EC50 [1]: 26000 nM
- IC50 (JNK1): 21 nM

Compound: CC(C)(C)OC(=O)N1CC2CC1CN2c1ccc(C(=O)NCc2cn(-c3ccccc3)c3cc(Cl)ccc3c2=O)cn1 (stereo not drawn) [Example I-62, 5-{5-[(7-Chloro-4-oxo-1-phenyl-1,4-dihydro-quinolin-3-ylmethyl)-carbamoyl]-pyridin-2-yl}-2,5-diaza-bicyclo[2.2.1]heptane-2-carboxylic acid tert-butyl ester]
- EC50 [1]: 13000 nM
- IC50 (JNK1): 11 nM

Compound: COC(=O)c1c(CNC(=O)c2ccc(-c3ncc[nH]3)cc2)c(=O)c2ccc(Cl)cc2n1-c1ccccc1 [Example I-114, 7-Chloro-3-{[4-(1H-imidazol-2-yl)-benzoylamino]-methyl}-4-oxo-1-phenyl-1,4-dihydro-quinoline-2-carboxylic acid methyl ester]
- EC50 [1]: 4100 nM
- IC50 (JNK1): 7 nM

Compound: CN(CCO)c1ccc(C(=O)NCc2cn(-c3ccccc3)c3cc(Cl)ccc3c2=O)cn1 [Example I-66, N-(7-Chloro-4-oxo-1-phenyl-1,4-dihydro-quinolin-3-ylmethyl)-6-[(2-hydroxy-ethyl)-methyl-amino]-nicotinamide]
- EC50 [1]: 29000 nM
- IC50 (JNK1): 19 nM

Compound: COc1ccc(C(=O)NCc2cn(-c3ccccc3)c3cc(Cl)ccc3c2=O)cn1 [Example I-35, N-(7-Chloro-4-oxo-1-phenyl-1,4-dihydro-quinolin-3-ylmethyl)-6-methoxy-nicotinamide]
- EC50 [1]: 100000 nM
- IC50 (JNK1): 54 nM

Compound: Cn1cc(C(=O)NCc2cn(-c3ccccc3)c3cc(Cl)ccc3c2=O)cn1 [Example I-30, 1-Methyl-1H-pyrazole-4-carboxylic acid (7-chloro-4-oxo-1-phenyl-1,4-di hydro-quinolin-3-ylmethyl)-amide]
- EC50 [1]: 42000 nM
- IC50 (JNK1): 18 nM

Compound: CN(C)C(=O)c1c(CNC(=O)c2ccc(N3CCC(CCO)CC3)nc2)c(=O)c2ccc(Cl)cc2n1-c1ccccc1 [Example I-25, 4-(2-Hydroxy-ethyl)-3,4,5,6-tetrahydro-2H-[1,2′]bipyridinyl-5′-carboxylic acid (7-chloro-2-dimethylcarbamoyl-4-oxo-1-phenyl-1,4-dihydro-quinolin-3-ylmethyl)-amide]
- EC50 [1]: 9600 nM
- IC50 (JNK1): 51 nM

Compound: O=C(NCc1cn(-c2ccccc2)c2cc(Cl)ccc2c1=O)c1cnc(N2CCC(CO)CC2)s1 [Example I-93, 2-(4-Hydroxymethyl-piperidin-1-yl)-thiazole-5-carboxylic acid (7-chloro-4-oxo-1-phenyl-1,4-dihydro-quinolin-3-ylmethyl)-amide]
- EC50 [1]: 100000 nM
- IC50 (JNK1): 33 nM

Compound: COC(=O)c1c(CNC(=O)c2ccc(C(N)=O)cc2)c(=O)c2ccc(C(F)(F)F)nc2n1-c1ccccc1 [Example I-155, 3-[(4-Carbamoyl-benzoylamino)-methyl]-4-oxo-1-phenyl-7-trifluoromethyl-1,4-dihydro-[1,8]naphthyridine-2-carboxylic acid methyl ester]
- EC50 [1]: 14000 nM
- IC50 (JNK1): 27 nM

Compound: COC(=O)c1c(CNC(=O)c2ccc(-c3ccn[nH]3)cc2)c(=O)c2ccc(C(F)(F)F)nc2n1-c1ccccc1 [Example I-156, 4-Oxo-1-phenyl-3-{[4-(2H-pyrazol-3-yl)-benzoylamino]-methyl}-7-trifluoromethyl-1,4-dihydro-[1,8]naphthyridine-2-carboxylic acid methyl ester]
- EC50 [1]: 8700 nM
- IC50 (JNK1): 30 nM

Compound: COC(=O)c1c(CNC(=O)c2ccc(-c3nnn(C)n3)cc2)c(=O)c2ccc(C(F)(F)F)nc2n1-c1ccccc1 [Example I-157, 3-{[4-(2-Methyl-2H-tetrazol-5-yl)-benzoylamino]-methyl}-4-oxo-1-phenyl-7-trifluoromethyl-1,4-dihydro-[1,8]-naphthyridine-2-carboxylic acid methyl ester]
- EC50 [1]: 16000 nM
- IC50 (JNK1): 38 nM
